Assay results: patent US4489079A, “Pharmaceutical compositions having a peripheral antagonistic action with respect to opiates” (priority 1981, dated 1984)

Legend:
[1] = test system: analgesic effect of morphine; details: for central effects / central activity (in words): conclusion from Table I; for ID50 a / ID50 c: ratio of analgesic-effect ID50 a to constipating-effect ID50 c; for ID50 a / ID50 c / Antagonism with respect to the analgesic effect ID50 a: (°) inactive up to the maximum injectable dose; for Antagonism with respect to the analgesic effect ID50 a: subcutaneous antagonist, 5 min before 12 mg/kg s.c. morphine, female mice, limits in parentheses, where given, on next line
[2] = test system: analgesic effect of morphine; experiment: animal or person; details: Mus musculus, sc, read-out: Antagonism with respect to the analgesic effect ID50 a
[3] = test system: constipating effect of morphine; experiment: antagonism to the constipating effect of morphine (charcoal meal test, after A. F. Green, modified); details: for ED50: Mus musculus, sc, read-out: Antagonism with respect to the constipating effect ID50 c; for Antagonism with respect to the constipating effect ID50 c: subcutaneous antagonist, 5 min before 12 mg/kg s.c. morphine, female mice, extrapolated from least squares line log dose-response, limits in parentheses printed on next line
[4] = morphine control group, 12 mg/kg subcutaneous

SMILES | central effects / central activity (in words) [1] | ID50 a relative to ID50 c (in words) ([1]; mouse, in vivo) | ID50 a / ID50 c [1] | ED50 [2] [mg/kg] | ED50 [3] [mg/kg] | animals showing the increase of the threshold of sensitivity [1, 4] [%] | average increase of the threshold of sensitivity [1, 4] [%] | Antagonism with respect to the analgesic effect ID50 a [1] [mg/kg] | Antagonism with respect to the constipating effect ID50 c [3] [mg/kg]
C=CCN1CC[C@]23c4c5ccc(O)c4O[C@H]2C(=O)CC[C@@]3(O)[C@H]1C5 [naloxone, N-allylnoroxymorphone] | very active | much more active as antagonist of the analgesic effect than antagonist of the constipating effect | 0.11 | 0.083 | 0.75 |  |  |  | 
CN1CC[C@]23c4c5ccc(O)c4O[C@H]2[C@@H](O)C=C[C@H]3[C@H]1C5 [morphine] |  |  |  |  |  | 100 | 100 |  | 
C=CC[N+]1(C)CC[C@]23c4c5ccc(O)c4O[C@H]2C(=O)CC[C@@]3(O)[C@H]1C5 (some centres unmarked) [naloxone bromomethylate] | have a certain central activity |  | 0.47 | 5.12 | 10.8 |  |  |  | 
C=CC[N+]1(C)CC[C@]23c4c5ccc(O)c4O[C@H]2C(=O)CC[C@@]3(O)[C@H]1C5.COS(=O)(=O)[O-] (some centres unmarked) [naloxone sulfomethylate] | have a certain central activity |  | 1.68 |  |  |  |  | 5.039 | 2.99
C=CC[N+]1(CC=C)CC[C@]23CCCC[C@H]2[C@H]1Cc1ccc(O)cc13 [levallorphan iodoallylate, iodoallylate of levallorphan] |  |  | > 3.61 |  |  |  |  | > 60 | 16.68
C=CC[N+]1(CC=C)CC[C@]23CCCC[C@H]2[C@H]1Cc1ccc(O)cc13 [levallorphan bromoallylate, bromoallylate of levallorphan] |  |  | > 5.11 |  |  |  |  | > 80 | 
